The source of these data is ChEMBL document CHEMBL3286359, “Synthesis and SAR of substituted pyrazolo[1,5-a]quinazolines as dual mGlu(2)/mGlu(3) NAMs” (Bioorg Med Chem Lett, 2014).

Each structure is given as a SMILES string. Active and inactive are the calls of the source. The rule behind the calls is not given here.

In data set [1] the target is Metabotropic glutamate receptor 2 (Rattus norvegicus) (UniProt P31421). Kind of data set: Inhibition of rat mGlu2 receptor transfected in HEK293 cells coexpressing mouse Galpha15 assessed as decrease in glutamate-induced calcium signaling at 1 uM by fluorescence plate reader analysis in presence of glutamate at EC76 concentration. The class given is functional, cell-based.

Data set [2] shares this target. Kind of data set: Positive allosteric modulatory activity at rat mGlu2 receptor transfected in HEK293 cells co-expressing mouse Galpha15 assessed as potentiation of glutamate-dependent calcium signaling at 3 uM by fluorescence plate reader analysis in presence of glutamate at EC20 concentration. It is filed as functional, cell-based.
The target in data set [3] is Metabotropic glutamate receptor 3 (Rattus norvegicus) (UniProt P31422). Kind of data set: Inhibition of rat mGlu3 receptor transfected in HEK293 cells coexpressing mouse Galpha15 assessed as decrease in glutamate-induced calcium signaling at 1 uM by fluorescence plate reader analysis in presence of glutamate at EC87 concentration. It is filed as functional, cell-based.

The target is the same in data set [4]. The experiment in a line: Positive allosteric modulatory activity at rat mGlu3 receptor transfected in HEK293 cells co-expressing mouse Galpha15 assessed as potentiation of glutamate-dependent calcium signaling at 3 uM by fluorescence plate reader analysis in presence of glutamate at EC20 concentration. The class given is functional, cell-based.
Data set [5] has as its target Metabotropic glutamate receptor 2 (Rattus norvegicus) (UniProt P31421). The experiment in a line: Inhibition of rat mGlu2 receptor transfected in HEK293 cells coexpressing mouse Galpha15 assessed as decrease in glutamate-induced calcium signaling at 3 uM by fluorescence plate reader analysis in presence of glutamate at EC76 concentration. The class given is functional, cell-based.

Data set [6] addresses Metabotropic glutamate receptor 3 (Rattus norvegicus) (UniProt P31422). Kind of data set: Inhibition of rat mGlu3 receptor transfected in HEK293 cells coexpressing mouse Galpha15 assessed as decrease in glutamate-induced calcium signaling at 3 uM by fluorescence plate reader analysis in presence of glutamate at EC87 concentration. The class given is functional, cell-based.

Data set [7] has the same target. Conditions: 10 uM.
Description: Inhibition of rat mGlu3 receptor assessed as decrease in glutamate-induced calcium signaling at 10 uM by fluorescence plate reader analysis
Data set [8] concerns the target Metabotropic glutamate receptor 2 (Rattus norvegicus) (UniProt P31421). The experiment in a line: Negative allosteric modulatory activity at rat mGlu2 receptor transfected in HEK293 cells coexpressing mouse Galpha15 assessed as decrease in glutamate-induced calcium signaling by fluorescence plate reader analysis in presence of glutamate at EC76 concentration. It is filed as functional, cell-based.

The target in data set [9] is Metabotropic glutamate receptor 8 (Rattus norvegicus) (UniProt P70579). The experiment in a line: Activity at rat mGlu8 receptor assessed as glutamate-induced GIRK response at 10 uM.
Data set [10] deals with Metabotropic glutamate receptor 6 (Homo sapiens) (UniProt O15303). The experiment in a line: Activity at human mGlu6 receptor assessed as glutamate-induced GIRK response at 10 uM.
Data set [11] has as its target Metabotropic glutamate receptor 4 (Rattus norvegicus) (UniProt P31423). The experiment in a line: Activity at rat mGlu4 receptor assessed as glutamate-induced GIRK response at 10 uM.
Data set [12] concerns the target Metabotropic glutamate receptor 3 (Rattus norvegicus, UniProt P31422). The experiment in a line: Inhibition of rat mGlu3 receptor transfected in HEK293 cells coexpressing mouse Galpha15 assessed as decrease in glutamate-induced calcium signaling by fluorescence plate reader analysis in presence of glutamate at EC87 concentration. The class given is functional, cell-based.

Data set [13] relates to Plasma. Kind of data set: Fraction unbound in human plasma. It is filed as ADME, cell-free.
In data set [14] the test system is Plasma. Kind of data set: Fraction unbound in rat plasma. It is filed as ADME, cell-free.
Data set [15] concerns the target Metabotropic glutamate receptor 5 (Rattus norvegicus) (UniProt P31424). The experiment in a line: Activity at rat mGlu5 receptor assessed as glutamate-induced calcium signaling at 10 uM by fluorescence plate reader analysis. The class given is functional.
In data set [16] the target is Metabotropic glutamate receptor 2 (Rattus norvegicus, UniProt P31421). The experiment in a line: Inhibition of rat mGlu2 receptor transfected in HEK293 cells coexpressing mouse Galpha15 assessed as decrease in glutamate-induced calcium signaling by fluorescence plate reader analysis in presence of glutamate at EC76 concentration. The class given is functional, cell-based.

The target of data set [17] is Metabotropic glutamate receptor 2 (Rattus norvegicus) (UniProt P31421). Kind of data set: Inhibition of rat mGlu2 receptor assessed as decrease in glutamate-induced calcium signaling at 10 uM by fluorescence plate reader analysis. It is filed as functional.
Data set [18] deals with Metabotropic glutamate receptor 7 (Rattus norvegicus) (UniProt P35400). Kind of data set: Activity at rat mGlu7 receptor assessed as glutamate-induced GIRK response at 10 uM.

Chain of Metabotropic glutamate receptor 2 (Rattus norvegicus) (P31421 19-872 limits assumed): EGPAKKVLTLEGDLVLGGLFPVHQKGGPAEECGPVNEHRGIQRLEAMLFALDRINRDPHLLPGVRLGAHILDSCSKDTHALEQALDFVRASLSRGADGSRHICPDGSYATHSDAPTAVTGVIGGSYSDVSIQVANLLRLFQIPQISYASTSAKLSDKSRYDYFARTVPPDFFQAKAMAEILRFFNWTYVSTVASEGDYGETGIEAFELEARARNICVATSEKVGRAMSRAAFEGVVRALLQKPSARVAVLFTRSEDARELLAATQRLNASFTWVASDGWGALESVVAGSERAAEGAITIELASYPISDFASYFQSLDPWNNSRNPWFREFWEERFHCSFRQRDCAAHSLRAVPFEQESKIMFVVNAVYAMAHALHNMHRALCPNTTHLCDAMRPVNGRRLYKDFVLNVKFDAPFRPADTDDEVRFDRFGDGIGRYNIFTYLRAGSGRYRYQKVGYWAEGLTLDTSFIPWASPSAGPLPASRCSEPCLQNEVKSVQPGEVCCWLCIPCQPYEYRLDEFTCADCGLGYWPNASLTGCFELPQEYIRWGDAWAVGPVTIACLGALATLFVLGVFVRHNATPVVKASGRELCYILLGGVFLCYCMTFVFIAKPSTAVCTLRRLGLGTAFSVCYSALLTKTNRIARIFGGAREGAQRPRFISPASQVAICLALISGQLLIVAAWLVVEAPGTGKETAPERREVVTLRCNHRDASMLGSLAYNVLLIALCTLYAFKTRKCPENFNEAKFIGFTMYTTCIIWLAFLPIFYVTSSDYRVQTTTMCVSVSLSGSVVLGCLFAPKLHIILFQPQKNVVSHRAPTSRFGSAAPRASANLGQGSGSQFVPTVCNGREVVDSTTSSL
Chain of Metabotropic glutamate receptor 3 (Rattus norvegicus) (P31422 23-879 limits assumed): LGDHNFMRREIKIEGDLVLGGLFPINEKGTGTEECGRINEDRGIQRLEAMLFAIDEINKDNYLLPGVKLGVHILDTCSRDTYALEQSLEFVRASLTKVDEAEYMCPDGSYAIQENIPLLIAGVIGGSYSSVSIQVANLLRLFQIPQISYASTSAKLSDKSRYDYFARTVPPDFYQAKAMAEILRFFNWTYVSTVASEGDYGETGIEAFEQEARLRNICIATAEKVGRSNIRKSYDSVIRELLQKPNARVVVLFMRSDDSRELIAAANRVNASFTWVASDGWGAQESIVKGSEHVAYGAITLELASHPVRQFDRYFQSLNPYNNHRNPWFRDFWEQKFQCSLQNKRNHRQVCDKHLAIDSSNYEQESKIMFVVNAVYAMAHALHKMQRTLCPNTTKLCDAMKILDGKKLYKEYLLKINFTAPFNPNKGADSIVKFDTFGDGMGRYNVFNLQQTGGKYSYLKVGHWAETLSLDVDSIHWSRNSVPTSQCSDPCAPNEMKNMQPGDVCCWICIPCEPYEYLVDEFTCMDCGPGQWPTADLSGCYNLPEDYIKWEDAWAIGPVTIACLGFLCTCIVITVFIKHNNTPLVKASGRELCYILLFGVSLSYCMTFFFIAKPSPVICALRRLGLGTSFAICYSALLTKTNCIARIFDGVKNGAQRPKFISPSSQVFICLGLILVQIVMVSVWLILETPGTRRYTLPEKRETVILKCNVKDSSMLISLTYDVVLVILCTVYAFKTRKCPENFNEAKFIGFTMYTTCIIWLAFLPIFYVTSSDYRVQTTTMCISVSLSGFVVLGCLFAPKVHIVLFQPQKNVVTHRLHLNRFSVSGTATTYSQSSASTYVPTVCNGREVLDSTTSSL
Chain of Metabotropic glutamate receptor 3 (P31422 whole entry): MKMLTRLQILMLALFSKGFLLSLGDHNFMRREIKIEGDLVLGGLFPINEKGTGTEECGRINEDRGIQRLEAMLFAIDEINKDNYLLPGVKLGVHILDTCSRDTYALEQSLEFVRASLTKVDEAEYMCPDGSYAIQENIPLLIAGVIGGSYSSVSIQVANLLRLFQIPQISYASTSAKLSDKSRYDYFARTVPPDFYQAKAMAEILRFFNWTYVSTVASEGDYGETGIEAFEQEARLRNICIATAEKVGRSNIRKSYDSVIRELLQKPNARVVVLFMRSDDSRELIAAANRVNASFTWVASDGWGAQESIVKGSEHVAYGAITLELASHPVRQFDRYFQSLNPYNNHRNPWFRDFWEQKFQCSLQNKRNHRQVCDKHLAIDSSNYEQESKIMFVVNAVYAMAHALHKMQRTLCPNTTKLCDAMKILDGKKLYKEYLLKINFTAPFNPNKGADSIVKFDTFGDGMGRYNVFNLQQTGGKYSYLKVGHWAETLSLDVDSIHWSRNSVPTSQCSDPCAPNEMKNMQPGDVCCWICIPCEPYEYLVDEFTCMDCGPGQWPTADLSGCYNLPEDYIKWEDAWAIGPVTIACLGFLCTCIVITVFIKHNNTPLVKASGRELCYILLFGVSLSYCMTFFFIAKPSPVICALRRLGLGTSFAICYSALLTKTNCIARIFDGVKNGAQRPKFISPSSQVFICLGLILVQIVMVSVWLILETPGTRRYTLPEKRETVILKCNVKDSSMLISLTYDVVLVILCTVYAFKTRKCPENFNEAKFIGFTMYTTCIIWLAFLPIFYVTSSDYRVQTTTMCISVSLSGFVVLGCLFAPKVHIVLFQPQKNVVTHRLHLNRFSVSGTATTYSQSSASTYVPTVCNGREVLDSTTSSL
Chain of Metabotropic glutamate receptor 2 (P31421 whole entry): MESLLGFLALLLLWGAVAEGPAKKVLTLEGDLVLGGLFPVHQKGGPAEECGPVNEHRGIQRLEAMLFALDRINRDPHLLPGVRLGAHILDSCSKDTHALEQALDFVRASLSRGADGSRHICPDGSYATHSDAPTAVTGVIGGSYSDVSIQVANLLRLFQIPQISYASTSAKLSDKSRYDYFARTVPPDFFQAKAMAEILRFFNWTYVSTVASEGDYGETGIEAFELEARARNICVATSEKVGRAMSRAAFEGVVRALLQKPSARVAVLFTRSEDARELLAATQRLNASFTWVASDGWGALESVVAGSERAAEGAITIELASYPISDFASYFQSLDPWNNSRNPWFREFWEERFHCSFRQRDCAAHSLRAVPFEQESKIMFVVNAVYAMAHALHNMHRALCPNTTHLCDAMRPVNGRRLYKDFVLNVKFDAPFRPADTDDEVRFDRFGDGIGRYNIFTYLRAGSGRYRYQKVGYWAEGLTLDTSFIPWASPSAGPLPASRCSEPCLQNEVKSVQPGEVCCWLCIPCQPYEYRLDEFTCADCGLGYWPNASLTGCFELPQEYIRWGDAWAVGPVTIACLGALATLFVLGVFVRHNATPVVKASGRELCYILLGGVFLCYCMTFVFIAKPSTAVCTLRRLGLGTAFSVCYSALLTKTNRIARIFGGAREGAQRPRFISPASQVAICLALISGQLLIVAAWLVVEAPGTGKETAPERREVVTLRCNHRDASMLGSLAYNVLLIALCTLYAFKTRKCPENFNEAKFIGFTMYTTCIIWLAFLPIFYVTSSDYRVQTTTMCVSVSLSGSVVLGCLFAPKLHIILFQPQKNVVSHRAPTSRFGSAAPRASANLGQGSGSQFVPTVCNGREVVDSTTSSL
Chain of Metabotropic glutamate receptor 6 (Homo sapiens) (O15303 whole entry): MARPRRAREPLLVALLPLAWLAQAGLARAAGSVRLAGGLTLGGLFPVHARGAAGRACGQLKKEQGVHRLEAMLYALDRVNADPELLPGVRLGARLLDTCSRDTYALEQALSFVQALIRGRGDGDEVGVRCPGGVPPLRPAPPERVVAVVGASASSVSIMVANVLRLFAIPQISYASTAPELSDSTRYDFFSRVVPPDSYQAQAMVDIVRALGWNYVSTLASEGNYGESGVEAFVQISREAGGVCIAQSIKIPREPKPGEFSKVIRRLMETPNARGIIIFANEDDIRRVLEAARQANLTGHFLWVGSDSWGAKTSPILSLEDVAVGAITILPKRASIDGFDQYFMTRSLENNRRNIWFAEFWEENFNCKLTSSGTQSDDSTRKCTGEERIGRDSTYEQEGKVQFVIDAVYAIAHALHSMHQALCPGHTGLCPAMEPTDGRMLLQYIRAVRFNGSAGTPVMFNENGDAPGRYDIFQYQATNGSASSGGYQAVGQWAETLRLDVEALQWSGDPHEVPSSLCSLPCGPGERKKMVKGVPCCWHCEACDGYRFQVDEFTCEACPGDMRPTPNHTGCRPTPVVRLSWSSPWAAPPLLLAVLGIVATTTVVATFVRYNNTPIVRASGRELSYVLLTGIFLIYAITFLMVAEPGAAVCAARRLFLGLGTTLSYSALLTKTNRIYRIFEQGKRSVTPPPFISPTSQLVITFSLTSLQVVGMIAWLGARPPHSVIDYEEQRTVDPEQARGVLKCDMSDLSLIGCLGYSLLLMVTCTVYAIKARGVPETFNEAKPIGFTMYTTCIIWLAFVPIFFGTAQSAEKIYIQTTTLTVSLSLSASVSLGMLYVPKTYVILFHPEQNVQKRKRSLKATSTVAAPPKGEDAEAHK

The inhibition is the share of the control response that was lost under treatment. `Cc1ccc2c(=O)n(C)c3cc(-c4ccc(Cl)cc4)nn3c2c1`: the inhibition in [1] turned out to be 60%; in data set [3], 60%; in [5], 11%; in [6] it was 33%. In addition, the result in data set [2] and in [4] was inactive.
The IC50 is the concentration at which inhibition is half-maximal. On to `Cn1c(=O)c2ccc(-c3cncnc3)cc2n2nc(-c3ccccc3)cc12`, for which the inhibition entry in [7] and in data set [17] was “Active” each time. For the same molecule, the Activity entry in [8] was “Dose-dependent effect”. The result in data set [9], in [10], in data set [11], in data set [15] and in data set [18] was inactive. The IC50 in data set [12] was found to be 0.078 µM; in [16], 0.245 µM. The Fu in [13] came out at 0.008; in data set [14], 0.003.
Consider `Cn1c(=O)c2ccc(-c3cccnc3)cc2n2nc(-c3ccc(Cl)cc3)cc12`, for which the inhibition in [1] and in data set [3] was 60% throughout. The outcome in [2] and in data set [4] was inactive. In addition, the values for the IC50 in [12] and in data set [16] were 0.645 µM and 1.11 µM, respectively.
As for `Cn1c(=O)c2ccc(-c3cccc(S(N)(=O)=O)c3)cc2n2nc(-c3ccc(Cl)cc3)cc12`, the inhibition in data set [1] and in [3] was 60% each time. For the same molecule, the result in [2] and in [4] was inactive. The IC50 in data set [12] came to 1.25 µM; in [16], 0.847 µM.
For the molecule `COc1ccc(-c2ccc3c(=O)n(C)c4cc(-c5ccc(Cl)cc5)nn4c3c2)cc1`, the inhibition in [1] is 60%; in data set [3], 60%; in data set [5] it was 6%; in data set [6], 21%. The outcome in [2] and in data set [4] was inactive.
As for `Cn1c(=O)c2ccc(-c3ccccc3)cc2n2nc(-c3ccc(Cl)cc3)cc12`, the inhibition in data set [1] was determined as 60%; in [3] it was 60%; in data set [5] it was 4%; in data set [6] it was 31%. The result in data set [2] and in [4] was inactive.
